The assay deals with T1, prolyl oligopeptidase (POP) (Homo sapiens, UniProt P48147).
T1 construct: made in house; host or cells: E. coli BL21
T1 sequence (P48147 1-710): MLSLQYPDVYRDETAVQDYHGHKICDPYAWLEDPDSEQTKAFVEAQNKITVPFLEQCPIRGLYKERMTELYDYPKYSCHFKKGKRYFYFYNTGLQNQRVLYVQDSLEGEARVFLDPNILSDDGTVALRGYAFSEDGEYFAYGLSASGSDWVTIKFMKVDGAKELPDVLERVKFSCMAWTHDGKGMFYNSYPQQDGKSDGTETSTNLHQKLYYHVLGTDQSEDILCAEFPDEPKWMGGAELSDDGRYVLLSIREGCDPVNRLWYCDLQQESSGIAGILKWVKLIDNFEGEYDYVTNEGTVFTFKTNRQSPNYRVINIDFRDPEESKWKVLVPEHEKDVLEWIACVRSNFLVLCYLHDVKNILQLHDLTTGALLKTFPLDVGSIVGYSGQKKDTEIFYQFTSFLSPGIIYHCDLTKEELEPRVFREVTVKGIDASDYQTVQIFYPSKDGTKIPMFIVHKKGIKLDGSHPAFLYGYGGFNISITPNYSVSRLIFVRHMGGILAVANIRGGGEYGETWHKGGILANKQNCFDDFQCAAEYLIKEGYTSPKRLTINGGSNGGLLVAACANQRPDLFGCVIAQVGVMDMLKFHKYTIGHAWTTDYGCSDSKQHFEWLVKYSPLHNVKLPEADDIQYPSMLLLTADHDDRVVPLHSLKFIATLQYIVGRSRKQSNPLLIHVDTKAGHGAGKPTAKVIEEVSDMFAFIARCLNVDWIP
The assay can be described thus: ITC enthalpy of catalysis and Michaelis-Menten parameters with TRH. As to conditions: 30 °C. The assay is classed as biochemical. On the procedure: Prolyl oligopeptidase enthalpy of catalysis and Michaelis-Menten parameters.
Supplementary Figure 3. Prolyl oligopeptidase and TRH enthalpy of catalysis. 3 injections (15 µL over 30 s) of Thyrotropin-releasing Hormone (TRH) (5.5 mM in syringe) into cell containing POP (250 nM in Cell) at 30 °C in buffer described above. Experiment was carried out using a Malvern VP -ITC.
Supplementary Figure 4. Michaelis-Menten plot for prolyl oligopeptidase with TRH. 5 injections (8 µL, 6 […]
Thyrotropin -releasing Hormone (TRH) (27.6 mM in syringe) into cell containing POP (2.5 nM in Cell) at 30 °C in buffer described above. The enzyme velocity at several concentrations of substrate (black ope n circles) was extracted using the methods described in 13 and fit to Michaelis-Menten kinetics (blue curve).
Experiment was carried out in Malvern VP -ITC. […]
Supplementary Table 1. Summary of prolyl oligopeptidase 13 enzyme parameters with TRH. Determined by ITC using techniques presented by Gomez et al.
Enthalpy of binding in kinetics of inhibition and initiation experiments . In the kinetics of inhibition and initiation experiments performed here, the instrument measures both the heat generated by enzymatic catalysis and the heat produced due direct interaction of the inhibitor with the enzyme. In order to estimate the relative magnitudes of these two effects, the enthalpy of binding was directly measured […]
1000-fold greater, 5 µM) than those used in kinetics of inhibition and initiation experiments (Supplementary Fig. 5 ). Binding data were then modelled at the concentrations of enzyme and inhibitor and injection size and spacing used for the kinetic experiment for compound 5, with representative instrumental noise estimated from the basel ines, ΔHbind taken from Supplementary Table 2 and Ki taken as a previously reported value (0.5 nM) 14 (Supplementary Fig. 6).
Supplementary Figure 5. Compound 5 prolyl o ligopeptidase binding experiments. Compound 5 (90 µM) was titrated into 5 µM POP in cell using a Malvern ITC-200 calorimeter. […]

Consider thyrotropin-releasing hormone [TRH], for which the Km turned out to be 975 µM, the catalytic constant (kcat) is 42.19 s⁻¹ and the ΔHcat was -6.72 ± 0.06 kcal/mol.

These data come from paper PMC5832847, “Rapid measurement of inhibitor binding kinetics by isothermal titration calorimetry” (Nature Communications, 2018).
